ChEMBL document CHEMBL1777761, “Tryptamine derivatives as novel non-nucleosidic inhibitors against hepatitis B virus” (Bioorg Med Chem, 2011)

Tests used:
Hepatitis B virus = test: Antiviral activity against Hepatitis B virus infected in human HepG2(2.2.15) cells assessed as inhibition of viral DNA replication after 4 days by RT-PCR analysis; type: functional, organism-based; conditions: HepG2 2.2.15, 96 h
[1] = Cytotoxicity against human HepG2(2.2.15) cells after 8 days by MTT assay; type: cell-based
[2] = Selectivity index, ratio of CC50 for human HepG2.2.15 cells to IC50 for Hepatitis B virus; type: functional

CCCN(CCC)CCc1c[nH]c2ccccc12
IC50 (Hepatitis B virus): > 100 µM | CC50 at 192 h [1]: > 100 µM

CCN(CCc1c[nH]c2ccccc12)CCC(C)C
IC50 (Hepatitis B virus): > 25 µM | CC50 at 192 h [1]: > 25 µM

CC(C)CCN(C)CCc1c[nH]c2ccccc12
IC50 (Hepatitis B virus): > 25 µM | CC50 at 192 h [1]: > 25 µM

CN(C)CCc1c[nH]c2ccccc12 [N,N-DIMETHYLTRYPTAMINE]
IC50 (Hepatitis B virus): > 100 µM | CC50 at 192 h [1]: > 100 µM

CC[N+]([O-])(CC)CCc1c[nH]c2ccccc12
IC50 (Hepatitis B virus): > 100 µM | CC50 at 192 h [1]: > 100 µM

CC(C)CCN(CCc1c[nH]c2ccccc12)Cc1cccs1
IC50 (Hepatitis B virus): 10.1 µM | Ratio CC50/IC50 [2]: >2.5 | CC50 at 192 h [1]: > 25 µM

CC(C)CCN(CCc1c[nH]c2ccccc12)CCC(C)C
IC50 (Hepatitis B virus): 0.4 µM | Ratio CC50/IC50 [2]: 102 | CC50 at 192 h [1]: 40.6 µM

c1csc(CN(CCc2c[nH]c3ccccc23)Cc2cccs2)c1
IC50 (Hepatitis B virus): 3.9 µM | Ratio CC50/IC50 [2]: >8.5 | CC50 at 192 h [1]: > 33.3 µM

CC(C)C[N+]([O-])(CCc1c[nH]c2ccccc12)CC(C)C
IC50 (Hepatitis B virus): > 100 µM | CC50 at 192 h [1]: > 100 µM

C[N+](C)([O-])CCc1c[nH]c2ccc(O)cc12
IC50 (Hepatitis B virus): < 1 µM | Ratio CC50/IC50 [2]: >25 | CC50 at 192 h [1]: > 25 µM

c1ccc2c(CCN(CC3CC3)CC3CC3)c[nH]c2c1
IC50 (Hepatitis B virus): 6 µM | Ratio CC50/IC50 [2]: >16.7 | CC50 at 192 h [1]: > 100 µM

[O-][N+](CCc1c[nH]c2ccccc12)(Cc1cccs1)Cc1cccs1
IC50 (Hepatitis B virus): 9.4 µM | Ratio CC50/IC50 [2]: >10.6 | CC50 at 192 h [1]: > 100 µM

CC(C)CC[N+]([O-])(CCc1c[nH]c2ccccc12)CCC(C)C
CC50 at 192 h [1]: 77.6 µM

[O-][N+](CCc1c[nH]c2ccccc12)(CC1CC1)CC1CC1
IC50 (Hepatitis B virus): > 100 µM | CC50 at 192 h [1]: > 100 µM

[O-][N+](CCc1c[nH]c2ccccc12)(CC1CCCCC1)CC1CCCCC1
IC50 (Hepatitis B virus): > 100 µM | CC50 at 192 h [1]: 23.1 µM

C[N+](C)([O-])CCc1c[nH]c2ccc(Cl)cc12
IC50 (Hepatitis B virus): 8.4 µM | Ratio CC50/IC50 [2]: >3 | CC50 at 192 h [1]: > 25 µM

O=[N+]([O-])c1cccc(CN(CCc2c[nH]c3ccccc23)Cc2cccc([N+](=O)[O-])c2)c1
IC50 (Hepatitis B virus): > 100 µM | CC50 at 192 h [1]: > 100 µM

C[N+](C)([O-])CCc1c[nH]c2ccccc12
IC50 (Hepatitis B virus): 17.6 µM | Ratio CC50/IC50 [2]: >5.7 | CC50 at 192 h [1]: > 100 µM

[O-][N+](CCc1c[nH]c2ccccc12)(Cc1ccccn1)Cc1ccccn1
IC50 (Hepatitis B virus): > 100 µM | CC50 at 192 h [1]: 56.5 µM

c1ccc(CN(CCc2c[nH]c3ccccc23)Cc2ccccc2)cc1
IC50 (Hepatitis B virus): 13 µM | Ratio CC50/IC50 [2]: 0.95 | CC50 at 192 h [1]: 12.4 µM

CCCN(CCc1c[nH]c2ccccc12)CCC(C)C
IC50 (Hepatitis B virus): 20 µM | Ratio CC50/IC50 [2]: >1.25 | CC50 at 192 h [1]: > 25 µM

CCN(CC)CCc1c[nH]c2ccccc12 [DIETHYLTRYPTAMINE]
IC50 (Hepatitis B virus): > 100 µM | CC50 at 192 h [1]: > 100 µM

[O-][N+](CCc1c[nH]c2ccccc12)(Cc1ccccc1)Cc1ccccc1
IC50 (Hepatitis B virus): > 100 µM | CC50 at 192 h [1]: > 100 µM

CC(C)CCN(CCc1c[nH]c2ccccc12)Cc1ccco1
IC50 (Hepatitis B virus): 5.3 µM | Ratio CC50/IC50 [2]: >4.7 | CC50 at 192 h [1]: > 25 µM

CC(C)CCN(CCc1cn(S(=O)(=O)c2ccccc2)c2ccccc12)CCC(C)C
IC50 (Hepatitis B virus): > 25 µM | CC50 at 192 h [1]: 15 µM

[O-][N+](CCc1c[nH]c2ccccc12)(Cc1ccco1)Cc1ccco1
IC50 (Hepatitis B virus): 7.5 µM | Ratio CC50/IC50 [2]: >13.3 | CC50 at 192 h [1]: > 100 µM

C[N+](C)([O-])CCc1c[nH]c2ccc(Br)cc12
IC50 (Hepatitis B virus): 5.4 µM | Ratio CC50/IC50 [2]: >4.6 | CC50 at 192 h [1]: > 25 µM

CCC[N+]([O-])(CCC)CCc1c[nH]c2ccccc12
IC50 (Hepatitis B virus): > 100 µM | CC50 at 192 h [1]: > 100 µM

Nc1ccn([C@@H]2CS[C@H](CO)O2)c(=O)n1 [LAMIVUDINE]
IC50 (Hepatitis B virus): 0.33 µM | Ratio CC50/IC50 [2]: 3557 | CC50 at 192 h [1]: 1170 µM

CC(C)CCN(CCc1c[nH]c2ccccc12)CC(C)C
IC50 (Hepatitis B virus): 1.1 µM | Ratio CC50/IC50 [2]: >23 | CC50 at 192 h [1]: > 25 µM

c1coc(CN(CCc2c[nH]c3ccccc23)Cc2ccco2)c1
IC50 (Hepatitis B virus): 3.5 µM | Ratio CC50/IC50 [2]: 7.8 | CC50 at 192 h [1]: 27.3 µM

CC(C)CN(CCc1c[nH]c2ccccc12)CC(C)C
IC50 (Hepatitis B virus): 12.2 µM | Ratio CC50/IC50 [2]: >8.2 | CC50 at 192 h [1]: > 100 µM

COc1cc(OC)c(OC)cc1CN(CCc1c[nH]c2ccccc12)Cc1cc(OC)c(OC)cc1OC
IC50 (Hepatitis B virus): 1.2 µM | Ratio CC50/IC50 [2]: 17.2 | CC50 at 192 h [1]: 21 µM

c1ccc2c(CCN(CC3CCCCC3)CC3CCCCC3)c[nH]c2c1
IC50 (Hepatitis B virus): > 100 µM | CC50 at 192 h [1]: > 33.3 µM

c1ccc(CN(CCc2c[nH]c3ccccc23)Cc2ccccn2)nc1
IC50 (Hepatitis B virus): > 25 µM | CC50 at 192 h [1]: 5.8 µM

CC(C)CCNCCc1c[nH]c2ccccc12
IC50 (Hepatitis B virus): > 25 µM | CC50 at 192 h [1]: > 25 µM
